Assay results as given in PubChem BioAssay (NCI).
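Exposure lasted 48 hours, with cells grown in 96-well plates and compounds tested at five concentrations. GI50 = concentration required for 50% inhibition of growth. TGI: total growth inhibition.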

What was measured:
Assay in all cases: NCI-60 cell line screen, 48 h
[1] = system: CCRF-CEM leukemia
[2] = system: MDA-MB-231 breast
[3] = system: K-562 leukemia
[4] = system: MCF7 breast
[5] = system: CAKI-1 renal
[6] = system: MALME-3M melanoma
[7] = system: SF-268 CNS
[8] = system: OVCAR-5 ovarian
[9] = system: RPMI-8226 leukemia
[10] = system: A498 renal
[11] = system: OVCAR-4 ovarian
[12] = system: SK-MEL-5 melanoma
[13] = system: SK-MEL-28 melanoma
[14] = system: MOLT-4 leukemia
[15] = system: SR leukemia
[16] = system: NCI-H23 lung
[17] = system: HCT-15 colon
[18] = system: SK-MEL-2 melanoma
[19] = system: RXF 393 renal
[20] = system: KM12 colon
[21] = system: SN12C renal
[22] = system: SW-620 colon
[23] = system: UACC-62 melanoma
[24] = system: DU-145 prostate
[25] = system: SNB-19 CNS
[26] = system: PC-3 prostate
[27] = system: OVCAR-8 ovarian
[28] = system: A549 NSCLC
[29] = system: HCT-116 colon
[30] = system: HL-60(TB) leukemia
[31] = system: COLO 205 colon
[32] = system: IGROV1 ovarian
[33] = system: SK-OV-3 ovarian
[34] = system: EKVX NSCLC
[35] = system: UACC-257 melanoma
[36] = system: SF-295 CNS
[37] = system: 786-0 renal
[38] = system: ACHN renal
[39] = system: M14 melanoma
[40] = system: HOP-92 NSCLC
[41] = system: SF-539 CNS
[42] = system: NCI-H522 lung
[43] = system: HS 578T breast
[44] = system: LOX IMVI melanoma
[45] = system: MDA-MB-435
[46] = system: HOP-62 NSCLC
[47] = system: NCI/ADR-RES ovarian
[48] = system: NCI-H460 lung
[49] = system: T-47D breast
[50] = system: UO-31 renal
[51] = system: HT29 colon
[52] = system: U251 CNS
[53] = system: SNB-75 CNS
[54] = system: TK-10 renal
[55] = system: OVCAR-3 ovarian
[56] = system: BT-549 breast
[57] = system: NCI-H226 lung
[58] = system: MDA-N

SMILES: O=C1OCC(c2cccs2)=C1Cl
- GI50 [1]: 84.1 µM
- TGI [1]: > 100 µM
- GI50 [2]: 24.7 µM
- TGI [2]: 98.2 µM
- GI50 [3]: > 100 µM
- TGI [3]: > 100 µM
- GI50 [4]: 39.3 µM
- TGI [4]: > 100 µM
- GI50 [5]: > 100 µM
- TGI [5]: > 100 µM
- GI50 [6]: > 100 µM
- TGI [6]: > 100 µM
- GI50 [7]: > 100 µM
- TGI [7]: > 100 µM
- GI50 [8]: 76.7 µM
- TGI [8]: > 100 µM
- GI50 [9]: 32.2 µM
- TGI [9]: > 100 µM
- GI50 [10]: 17.6 µM
- TGI [10]: 63.9 µM
- GI50 [11]: 73.8 µM
- TGI [11]: > 100 µM
- GI50 [12]: 86.3 µM
- TGI [12]: > 100 µM
- GI50 [13]: 76.8 µM
- TGI [13]: > 100 µM
- GI50 [14]: > 100 µM
- TGI [14]: > 100 µM
- GI50 [15]: > 100 µM
- TGI [15]: > 100 µM
- GI50 [16]: 60.6 µM
- TGI [16]: > 100 µM
- GI50 [17]: 74.2 µM
- TGI [17]: > 100 µM
- GI50 [18]: > 100 µM
- TGI [18]: > 100 µM
- GI50 [19]: 53 µM
- TGI [19]: > 100 µM
- GI50 [20]: 76.3 µM
- TGI [20]: > 100 µM
- GI50 [21]: 26.7 µM
- TGI [21]: > 100 µM
- GI50 [22]: > 100 µM
- TGI [22]: > 100 µM
- GI50 [23]: 19.5 µM
- TGI [23]: > 100 µM
- GI50 [24]: 26.7 µM
- TGI [24]: > 100 µM
- GI50 [25]: > 100 µM
- TGI [25]: > 100 µM
- GI50 [26]: > 100 µM
- TGI [26]: > 100 µM
- GI50 [27]: 90.1 µM
- TGI [27]: > 100 µM
- GI50 [28]: 41.1 µM
- TGI [28]: > 100 µM
- GI50 [29]: > 100 µM
- TGI [29]: > 100 µM
- GI50 [30]: > 100 µM
- TGI [30]: > 100 µM
- GI50 [31]: 32.2 µM
- TGI [31]: > 100 µM
- GI50 [32]: > 100 µM
- TGI [32]: > 100 µM
- GI50 [33]: > 100 µM
- TGI [33]: > 100 µM
- GI50 [34]: 40.5 µM
- TGI [34]: > 100 µM
- GI50 [35]: 41 µM
- TGI [35]: > 100 µM
- GI50 [36]: 80.9 µM
- TGI [36]: > 100 µM
- GI50 [37]: > 100 µM
- TGI [37]: > 100 µM
- GI50 [38]: 56.7 µM
- TGI [38]: > 100 µM
- GI50 [39]: > 100 µM
- TGI [39]: > 100 µM
- GI50 [40]: 54.5 µM
- TGI [40]: > 100 µM
- GI50 [41]: 23.2 µM
- TGI [41]: 86 µM
- GI50 [42]: 42.4 µM
- TGI [42]: > 100 µM
- GI50 [43]: 39 µM
- TGI [43]: > 100 µM
- GI50 [44]: 89.5 µM
- TGI [44]: > 100 µM
- GI50 [45]: > 100 µM
- TGI [45]: > 100 µM
- GI50 [46]: > 100 µM
- TGI [46]: > 100 µM
- GI50 [47]: 48.1 µM
- TGI [47]: > 100 µM
- GI50 [48]: 56.8 µM
- TGI [48]: > 100 µM
- GI50 [49]: 7.47 µM
- TGI [49]: > 100 µM
- GI50 [50]: 89 µM
- TGI [50]: > 100 µM
- GI50 [51]: 62.4 µM
- TGI [51]: > 100 µM
- GI50 [52]: 52.9 µM
- TGI [52]: > 100 µM
- GI50 [53]: 75.9 µM
- TGI [53]: > 100 µM
- GI50 [54]: 54.2 µM
- TGI [54]: > 100 µM
- GI50 [55]: 44.8 µM
- TGI [55]: > 100 µM
- GI50 [56]: 33.4 µM
- TGI [56]: > 100 µM
- GI50 [57]: 28.2 µM
- TGI [57]: 95.5 µM

SMILES: CC1(C)CC(=O)C2=C(C1)OC1=C(C(=O)CC(C)(C)C1)C2CC(c1ccccc1)c1ccc(O)c(O)c1O (centres undefined)
- TGI [2]: > 10 µM
- TGI [5]: > 10 µM
- TGI [7]: > 10 µM
- TGI [8]: > 10 µM
- TGI [11]: > 10 µM
- TGI [12]: > 10 µM
- TGI [16]: > 10 µM
- TGI [17]: > 10 µM
- TGI [19]: > 10 µM
- TGI [20]: > 10 µM
- TGI [21]: > 10 µM
- TGI [22]: > 10 µM
- TGI [24]: > 10 µM
- TGI [25]: > 10 µM
- TGI [26]: > 10 µM
- TGI [27]: > 10 µM
- TGI [28]: > 10 µM
- TGI [29]: > 10 µM
- TGI [32]: > 10 µM
- TGI [34]: > 10 µM
- TGI [36]: > 10 µM
- TGI [38]: > 10 µM
- TGI [39]: > 10 µM
- TGI [40]: > 10 µM
- TGI [41]: > 10 µM
- TGI [45]: > 10 µM
- TGI [47]: > 10 µM
- TGI [50]: > 10 µM
- TGI [51]: > 10 µM
- TGI [52]: > 10 µM
- TGI [58]: > 10 µM
- TGI [53]: > 10 µM
- TGI [54]: > 10 µM
- TGI [55]: > 10 µM
- TGI [57]: > 10 µM
